Reference: the NIST ThermoML archive (doi:10.1021/je0340755)

Assay: xn = mol fraction of the nth substance listed
Conditions: 101.3 kPa, Liquid; for viscosity: Capillary tube (Ostwald / Ubbelohde) method

CC(O)CO (stereo not given) [1,2-propanediol] + O
Conditions	mass density, 318.15 K [kg/m3]	mass density, 328.15 K [kg/m3]	mass density, 338.15 K [kg/m3]	speed of sound, 318.15 K [m/s]	speed of sound, 328.15 K [m/s]	speed of sound, 338.15 K [m/s]	viscosity, 328.15 K [mPa·s]	viscosity, 338.15 K [mPa·s]
x2 = 0.044	–	1010.15	1002.38	–	1414.3	1395.8	9.223	6.72
x2 = 0.0987	–	1010.89	1003.08	–	1421.8	1403.2	8.612	6.302
x2 = 0.1484	–	1011.57	1003.72	–	1426.6	1408.2	8.046	5.915
x2 = 0.2498	–	1012.99	1005.08	–	1440.5	1422.2	6.905	5.133
x2 = 0.3494	–	1014.43	1006.46	–	1460.2	1441.9	5.842	4.398
x2 = 0.4494	–	1015.82	1007.81	–	1486.4	1468	4.844	3.698
x2 = 0.5029	–	1016.47	1008.45	–	1504.2	1485.6	4.335	3.337
x2 = 0.5499	–	1016.94	1008.91	1555.5	1522.6	1503.8	3.901	3.027
x2 = 0.5597	1024.96	1017.01	1008.99	1559.6	1526.7	1507.9	3.811	2.961
x2 = 0.6501	1025.1	1017.26	1009.3	1599.9	1568.3	1549	3.002	2.378
x2 = 0.7499	1023.4	1015.84	1008.09	1637.6	1609.2	1590.8	2.147	1.75
x2 = 0.85	1017.63	1010.71	1003.47	1637.9	1617.9	1604.3	1.36	1.156
x2 = 0.9003	1011.96	1005.57	998.8	1615	1602.5	1593.6	1.012	0.882
x2 = 0.9115	1010.33	1004.09	997.45	1607.7	1597.2	1589.7	0.942	0.825
x2 = 0.9154	1009.72	1003.54	996.94	1605	1595.2	1588.2	0.917	0.806
x2 = 0.927	1007.79	1001.78	995.33	1596.5	1589	1583.5	0.848	0.749
x2 = 0.9367	1006.03	1000.17	993.86	1589	1583.4	1579.2	0.793	0.702
x2 = 0.9504	1003.28	997.67	991.56	1577.7	1575.1	1572.9	0.72	0.639
x2 = 0.9551	1002.26	996.73	990.71	1573.6	1572.2	1570.7	0.695	0.618
x2 = 0.96	1001.16	995.72	989.78	1569.4	1569.1	1568.4	0.672	0.597
x2 = 0.9696	998.86	993.62	987.84	1561	1563.1	1563.8	0.627	0.556
x2 = 0.9797	996.22	991.21	985.63	1552.2	1556.8	1559.2	0.582	0.515
x2 = 0.9902	993.24	988.47	983.11	1543.1	1550.5	1554.7	0.539	0.474
x2 = 0.9923	992.61	987.9	982.58	1541.4	1549.3	1553.9	0.531	0.466
x2 = 0.9948	991.85	987.19	981.93	1539.3	1547.8	1552.9	0.521	0.457
